Like-named read-outs stand apart in the source and are kept apart here.
Assays:
[1] = test system: smallflower umbrella sedge; assay: Test C flooded paddy test; format: in vivo, Cyperus difformis; details: Cyperus difformis
corn = assay: Test C pre-/postemergence herbicide test; format: in vivo, Zea mays
How it was run: (§1)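 Visual injury scores run from 0 (no effect) to 100 (complete control), assessed relative to untreated controls 12 to 14 days after treatment in the greenhouse. Chemicals were formulated in a non-phytotoxic solvent mixture with surfactant and applied to soil after planting or to emerged plants at the 1- to 4-leaf stage.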

barnyardgrass = assay: Test A pre-/postemergence herbicide test; format: in vivo, Echinochloa crus-galli; details: Echinochloa crus-galli, 240 h; for pest or weed control at 500 g/ha: 500 g ai/ha; for pest or weed control at 2000 g/ha: 2000 g ai/ha
How it was run: (§2)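 Pre: seeded sandy loam, directed soil spray, compound in non-phytotoxic solvent + surfactant. Post: 1–2-leaf plants (2–10 cm), sprayed to runoff. Greenhouse ~10 d; visual injury vs untreated, 0–100 scale.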

Surinam grass = assay: Test C pre-/postemergence herbicide test; format: in vivo, Urochloa decumbens
How it was run: as §1

morningglory = assay: Test C pre-/postemergence herbicide test; format: in vivo, Ipomoea coccinea
How it was run: as §1

velvetleaf [2] = assay: Test B pre-/postemergence herbicide test; format: in vivo, Abutilon theophrasti; details: Abutilon theophrasti, 336 h; for pest or weed control at 500 g/ha: 500 g ai/ha; for pest or weed control at 125 g/ha: 125 g ai/ha
How it was run: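 Herbicidal effect was judged by eye on a 0–100 scale after plants stood 13 to 15 days in the greenhouse following pre- or postemergence treatment with surfactant-containing formulations.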

large crabgrass = assay: Test A pre-/postemergence herbicide test; format: in vivo, Digitaria sanguinalis; details: Digitaria sanguinalis, 240 h; for pest or weed control at 500 g/ha: 500 g ai/ha; for pest or weed control at 2000 g/ha: 2000 g ai/ha
How it was run: as §2

kochia = assay: Test C pre-/postemergence herbicide test; format: in vivo, Kochia scoparia
How it was run: as §1

velvetleaf [3] = assay: Test C pre-/postemergence herbicide test; format: in vivo, Abutilon theophrasti
How it was run: as §1

[4] = Preemergence, 500 g ai/ha, scale 0 to 100, 0 no effect, 100 complete control
[5] = post-emergence, Postemergence, 0 to 100 scale, 0 no effect, 100 complete control, read-out: Plant response rating, Barnyardgrass
[6] = post-emergence, Postemergence, 0 to 100 scale, 0 no effect, 100 complete control, read-out: Plant response rating, Crabgrass, Large

Question: What does the source list for `CCn1nc(C(C)(C)C)cc1C(=O)Nc1cccc2c1CN(C)C2=O` [Compound 55, N-(2,3-dihydro-2-methyl-1-oxo-1H-isoindol-4-yl)-3-(1,1-dimethylethyl)-1-ethyl-1H-pyrazole-5-carboxamide]?
Answer: pest or weed control at 62 g/ha ([1]; 62 g ai/ha, scale 0 to 100 (0 no effect, 100 complete control), read-out: Sedge, Umbrella plant response rating): 0%; pest or weed control at 125 g/ha ([1]; 125 g ai/ha, scale of 0 to 100, 0 is no effect, 100 is complete control, read-out: Sedge, Umbrella plant response rating): 20%; pest or weed control at 250 g/ha ([1]; 250 g ai/ha, scale of 0 to 100, 0 is no effect, 100 is complete control, read-out: Sedge, Umbrella plant response rating): 75%; pest or weed control at 500 g/ha ([1]; 500 g ai/ha, visual rating after 12 to 14 days, scale 0 to 100 (0 no effect, 100 complete control), read-out: Plant response rating, Sedge, Umbrella): 80%; Plant response rating (0 = no effect, 100 = complete control), Corn (corn; 62 g ai/ha, preemergence): 0; Corn plant response rating (corn; [4]): 0; Corn plant response rating (crop injury, 0 = no effect, 100 = complete kill) at 125 g/ha (corn; Zea mays, pre-emergence, 312 h, 125 g ai/ha, scale 0 (no effect) to 100 (complete control), visual, 12 to 14 days): 0%; Corn plant response rating (crop injury, 0 = no effect, 100 = complete kill) at 250 g/ha (corn; Zea mays, pre-emergence, 312 h, 250 g ai/ha, scale 0 to 100 (0 no effect, 100 complete control), visual, 12 to 14 days): 0%; pest or weed control at 500 g/ha (barnyardgrass; [5]): 90%; pest or weed control at 2000 g/ha (barnyardgrass; [5]): 100%; pest or weed control at 500 g/ha (barnyardgrass; pre-emergence, Preemergence, visual rating, 0 to 100 scale (0 no effect, 100 complete control), read-out: Barnyardgrass plant response rating): 80%; pest or weed control at 2000 g/ha (barnyardgrass; pre-emergence, Preemergence, 0 to 100 scale, 0 no effect, 100 complete control, read-out: Barnyardgrass plant response rating): 95%; Plant response rating (0 = no effect, 100 = complete control), Surinam Grass (Surinam grass; 62 g ai/ha, preemergence): 0; Surinam Grass plant response rating (Surinam grass; [4]): 100; pest or weed control at 125 g/ha (Surinam grass; Urochloa decumbens, pre-emergence, 312 h, 125 g ai/ha, scale 0 (no effect) to 100 (complete control), visual, 12 to 14 days, read-out: Plant response rating, Surinam Grass): 25%; pest or weed control at 250 g/ha (Surinam grass; Urochloa decumbens, pre-emergence, 312 h, 250 g ai/ha, scale 0 to 100 (0 no effect, 100 complete control), visual, 12 to 14 days, read-out: Plant response rating, Surinam Grass): 65%; Plant response rating (0 = no effect, 100 = complete control), Morningglory (morningglory; 62 g ai/ha, preemergence): 0; pest or weed control at 125 g/ha (morningglory; Ipomoea, pre-emergence, 125 g ai/ha, scale 0 (no effect) to 100 (complete control), visual, 12 to 14 days, read-out: Plant response rating, Morningglory): 0%; pest or weed control at 250 g/ha (morningglory; Ipomoea, pre-emergence, 250 g ai/ha, scale 0 to 100 (0 no effect, 100 complete control), visual, 12 to 14 days, read-out: Plant response rating, Morningglory): 20%; Morningglory plant response rating (morningglory; [4]): 75; pest or weed control at 500 g/ha (velvetleaf [2]; post-emergence, Postemergence, visual rating after 13 to 15 days, scale 0 (no effect) to 100 (complete control), read-out: Plant response rating, Velvetleaf): 40%; pest or weed control at 125 g/ha (velvetleaf [2]; post-emergence, postemergence, visual rating, scale 0 (no effect) to 100 (complete control), read-out: Velvetleaf plant response rating): 20%; pest or weed control at 500 g/ha (velvetleaf [2]; pre-emergence, Preemergence, scale 0 to 100, read-out: Velvetleaf plant response rating): 30%; pest or weed control at 125 g/ha (velvetleaf [2]; pre-emergence, preemergence, 0 to 100 scale, 0 is no effect, 100 is complete control, read-out: Plant response rating, Velvetleaf): 0%; pest or weed control at 500 g/ha (large crabgrass; [6]): 25%; pest or weed control at 2000 g/ha (large crabgrass; [6]): 100%; pest or weed control at 500 g/ha (large crabgrass; pre-emergence, Preemergence, visual rating, 0 to 100 scale (0 no effect, 100 complete control), read-out: Crabgrass, Large plant response rating): 75%; pest or weed control at 2000 g/ha (large crabgrass; pre-emergence, Preemergence, 0 to 100 scale, 0 no effect, 100 complete control, read-out: Crabgrass, Large plant response rating): 100%; Plant response rating (0 = no effect, 100 = complete control), Kochia (kochia; 62 g ai/ha, preemergence): 25; pest or weed control at 125 g/ha (kochia; Bassia scoparia, pre-emergence, 125 g ai/ha, scale 0 (no effect) to 100 (complete control), visual, 12 to 14 days, read-out: Plant response rating, Kochia): 80%; pest or weed control at 250 g/ha (kochia; Bassia scoparia, pre-emergence, 250 g ai/ha, scale 0 to 100 (0 no effect, 100 complete control), visual, 12 to 14 days, read-out: Plant response rating, Kochia): 100%; Kochia plant response rating (kochia; [4]): 100; Plant response rating (0 = no effect, 100 = complete control), Velvetleaf (velvetleaf [3]; 62 g ai/ha, preemergence): 0; pest or weed control at 125 g/ha (velvetleaf [3]; Abutilon theophrasti, pre-emergence, 125 g ai/ha, scale 0 (no effect) to 100 (complete control), visual, 12 to 14 days, read-out: Plant response rating, Velvetleaf): 0%; pest or weed control at 250 g/ha (velvetleaf [3]; Abutilon theophrasti, pre-emergence, 250 g ai/ha, scale 0 to 100 (0 no effect, 100 complete control), visual, 12 to 14 days, read-out: Plant response rating, Velvetleaf): 15%; Velvetleaf plant response rating (velvetleaf [3]; [4]): 100

From patent US20060069132A1, “Azolecarboxamide herbicides” (priority 2004, published 2006)
